From US20060052311A1, “Peptide inhibitors of smac protein binding to inhibitor of apoptosis proteins (IAP)” (priority 2002, published 2006) come the findings set out here.

The test system of the assay is GST-BIR3 fusion protein. The assay can be described thus: FMAT solution phase assay: competition of GST-BIR3 off beads carrying biotinylated Smac 7-mer peptide. Particulars: competing GST-BIR3 off beads with immobilized biotinylated Smac 7-mer peptide (AVPIAQK). Type of assay: binding. Here is the method:
In order to measure the ability of the inventive compounds to bind the BIR3 peptide binding pocket, a solution phase assay on the FMAT technology platform is utilized. Biotinylated Smac 7-mer peptide (AVPIAQK, lysine ε-amino group is biotinylated) is immobilized on streptavidin coated beads. GST-BIR3 fusion protein is precipitated with FMAT beads and is detected using fluorescent tagged anti-GST antibodies. […] The IC50 for non-biotinylated Smac is 400 nM.

Usually IC50 stands for the concentration that inhibits the measured activity by half. A high value points to weaker potency. “non-biotinylated Smac: Non-biotinylated Smac peptide; the biotinylated bead-bound form is the Smac 7-mer AVPIAQK” showed an IC50 of 400 nM.
